In patent US6716851B2, “Substituted 2-aryl-4-arylaminopyrimidines and analogs as activators or caspases and inducers of apoptosis and the use thereof” (Cytovia, Inc., priority 2000, dated 2004):

Columns and labels:
ZR-75-1 cells = test: Caspase cascade activation (N-(Ac-DEVD)-N'-ethoxycarbonyl-R110 fluorogenic substrate) in ZR-75-1 cells; assay type: cell-based, Human; settings: ZR-75-1, 48 h incubation; for EC50: Homo sapiens, caspase activation potency; for ZR Ratio 48 hr: caspase activity: ratio of net RFU of test compound to control
Procedure: (§1) Human breast cancer cell lines T-47D and ZR-75-1 were grown according to media component mixtures designated by American Type Culture Collection +10% FCS (Invitrogen Corporation, Life Technologies division), in a 5% CO2-95% humidity incubator at 37° C. T-47D and ZR-75-1 cells were maintained at a cell density between 50 and 80% confluency at a cell density of 0.1 to 0.6×10^6 cells/ml. Cells were harvested at 600× g and resuspended at 0.65×10^6 cells/ml into appropriate media +10% FCS. An aliquot of […] of cells was added to a well of a […] microtiter plate containing 2.5 μl of a 10% DMSO in RPMI-1640 media solution containing 0.16 to 100 μM of 4-(3-methoxyanilino)-2-(2-pyridinyl)-6-(trifluoromethyl)pyrimidine or other test compound (0.016 to 10 μM final). An aliquot of 22.5 μl of cells was added to a well of a 384-well microtiter plate containing 2.5 μl of a 10% DMSO in RPMI-1640 media solution without test compound as the control sample. The samples were mixed by agitation and then incubated at 37° C. for 48 h in a 5% CO2-95% humidity incubator. After incubation, the samples were removed from the incubator and 25 μl of a solution containing 14 μM of N-(Ac-DEVD)-N′-ethoxycarbonyl-R110 fluorogenic substrate (Cytovia, Inc.; WO99/18856), 20% sucrose (Sigma), 20 mM DTT (Sigma), 200 mM NaCl (Sigma), 40 mM Na PIPES buffer pH 7.2 (Sigma), and 500 μg/ml lysolecithin (Calbiochem) was added. The samples were mixed by agitation and incubated at room temperature. Using a fluorescent plate reader (Model SpectraMax Gemini, Molecular Devices), an initial reading (T=0) was made approximately 1-2 min after addition of the substrate solution, employing excitation at 485 nm and emission at 530 nm, to determine the background fluorescence of the control sample. After the 3 h incubation, the samples were read for fluorescence as above (T=3 h).
(§2) The Relative Fluorescence Unit values (RFU) were used to calculate the sample readings as follows:
(§3) RFU(T=3h)−Control RFU(T=0)=Net RFU(T=3h)
(§4) The activity of caspase cascade activation was determined by the ratio of the net RFU value for 4-(3-methoxyanilino)-2-(2-pyridinyl)-6-(trifluoromethyl)pyrimidine or other test compound to that of control samples. The EC50 (nM) was determined by a sigmoidal dose-response calculation (Prism 2.0, GraphPad Software Inc.).

T-47D cells = test: Caspase cascade activation (N-(Ac-DEVD)-N'-ethoxycarbonyl-R110 fluorogenic substrate) in T-47D cells; assay type: cell-based, Human; settings: 48 h incubation; for EC50: Homo sapiens, T47D, caspase activation potency, read-out: T47 EC50; for T47 Ratio 48 hr: caspase activity: ratio of net RFU of test compound to control
Procedure: as §1, §2, §3, §4

SMILES	EC50 (ZR-75-1 cells)	ZR Ratio 48 hr (ZR-75-1 cells)	EC50 (T-47D cells)	T47 Ratio 48 hr (T-47D cells)
COc1ccc(Oc2ccccc2)cc1Nc1cc(C(F)(F)F)nc(-c2cccnc2)n1 [Example 85, 4-(2-Methoxy-5-phenoxyanilino)-2-(3-pyridinyl)-6-(trifluoromethyl)pyrimidine]	2830 nM	6.7	> 5000 nM	1.7
COc1ccc(C)cc1Nc1cc(C(F)(F)F)nc(-c2cccnc2)n1 [Example 87, 4-(2-Methoxy-5-methylanilino)-2-(3-pyridinyl)-6-(trifluoromethyl)pyrimidine]	< 75 nM	16.9	< 75 nM	19.2
Cc1ccc(F)cc1Nc1cc(C(F)(F)F)nc(-c2cccnc2)n1 [Example 88, 4-(5-Fluoro-2-methylanilino)-2-(3-pyridinyl)-6-(trifluoromethyl)pyrimidine]	1220 nM	8.0	2320 nM	9.8
COc1ccc(C(F)(F)F)cc1Nc1cc(C(F)(F)F)nc(-c2cccnc2)n1 [Example 89, 4-(2-Methoxy-5-trifluoromethylanilino)-2-(3-pyridinyl)-6-(trifluoromethyl)pyrimidine]	1600 nM	9.8	2740 nM	8.7
Cc1ccc(N)cc1Nc1cc(C(F)(F)F)nc(-c2cccnc2)n1.Cl [Example 91, 4-(5-Amino-2-methylanilino)-2-(3-pyridinyl)-6-(trifluoromethyl)pyrimidine hydrochloride]	788 nM	8.8	1440 nM	11.7
CCOc1cccc(Nc2cc(C(F)(F)F)nc(-c3ccccn3)n2)c1 [Example 92, 4-(3-Ethoxyanilino)-2-(2-pyridinyl)-6-(trifluoromethyl)pyrimidine]	285 nM	12.4	363 nM	16.8
CCc1cccc(Nc2cc(C(F)(F)F)nc(-c3ccccn3)n2)c1 [Example 93, 4-(3-Ethylanilino)-2-(2-pyridinyl)-6-(trifluoromethyl)pyrimidine]	2030 nM	8.2	> 5000 nM	2.0
COc1ccc(Cl)c(Nc2cc(C(F)(F)F)nc(-c3ccccn3)n2)c1 [Example 95, 4-(2-Chloro-5-methoxyanilino)-2-(2-pyridinyl)-6-(trifluoromethyl)pyrimidine]	148 nM	8.6	113 nM	11.6
CSc1cccc(Nc2cc(C(F)(F)F)nc(-c3ccccn3)n2)c1 [Example 96, 4-(3-Methylmercaptoanilino)-2-(2-pyridinyl)-6-(trifluoromethyl)pyrimidine]	2760 nM	4.9	> 5000 nM	1.4
Cl.Oc1cccc(Nc2cc(C(F)(F)F)nc(-c3cccnc3)n2)c1 [Example 97, 4-(3-Hydroxyanilino)-2-(3-pyridinyl)-6-(trifluoromethyl)pyrimidine hydrochloride]	717 nM	6.7	659 nM	14.5
CCOc1ccc(OCC)c(Nc2cc(C(F)(F)F)nc(-c3cccnc3)n2)c1 [Example 102, 4-(2,5-Diethoxyanilino)-2-(3-pyridinyl)-6-(trifluoromethyl)pyrimidine]	701 nM	7.4	512 nM	8.0
COc1cccc(CNc2cc(C(F)(F)F)nc(-c3cccnc3)n2)c1 [Example 104, 4-(3-Methoxybenzylamino)-2-(3-pyridinyl)-6-(trifluoromethyl)pyrimidine]	> 5000 nM	1.7	> 5000 nM	1.1
Oc1ccc(Cl)c(Nc2cc(C(F)(F)F)nc(-c3cccnc3)n2)c1 [Example 106, 4-(2-Chloro-5-hydroxyanilino)-2-(3-pyridinyl)-6-(trifluoromethyl)pyrimidine]	982 nM	2.4	183 nM	9.0
